Key:
Type in all cases: cell-based
human A375 cells = assay: Protection of melanocytes from tunicamycin (ER stress) induced cell death, MTT assay, A375; conditions: for % Recovery: compound at 25-30 μM, 6 h pretreatment, tunicamycin 100 ng/ml, total 72 h, cell growth over tunicamycin treatment; for EC50: Homo sapiens, A-375, different concentrations of compound along with tunicamycin, GraphPad Prism 7
Method: (§1) Compounds synthesized under present invention were tested for their in vitro potency. The potency was tested as their ability to protect melanocytes from ER stress induced cell death. ER stress was caused by the treatment of tunicamycin. The results obtained are summarized in Table-I, Table-II and Table-III for mouse B16F10 cells, human A375 cells and human primary melanocytes respectively. Table-IV and Table-V describes the potency of the compounds in effective concentration 50 (EC50) which means the dose of compound needed to get the 50% of maximum effect.
(§2) For the estimation of potency, mouse B16F10, human A375 or human primary melanocytes (NHEM) cells were pretreated in quadruplicates with these compounds for 6 hours. After 6 hours of incubation, tunicamycin was added at either 300 ng/ml for B16F10 cells or at 100 ng/ml for A375 cells or at 200 ng/ml for NHEM to induce stress mediated cell death and cultured further for a total of 72 hours. The vehicle (DMSO) concentration was kept constant for each well. After 72 hours of treatment, MTT assay was performed to measure the cell growth and vehicle control was kept at 100%. Effect of the treatment of compounds was calculated as cell growth over tunicamycin treatment. For the estimation of Effective Concentration 50 (EC50), cells were treated with different concentration of compounds along with tunicamycin and MTT assay was performed. The EC50 values were calculated by GraphPad Prism 7 software.

mouse B16F10 cells = assay: Protection of melanocytes from tunicamycin (ER stress) induced cell death, MTT assay, B16F10; conditions: for % Recovery: compound at 25-30 μM, 6 h pretreatment, tunicamycin 300 ng/ml, total 72 h, cell growth over tunicamycin treatment; for EC50: Mus musculus, B16-F10, different concentrations of compound along with tunicamycin, GraphPad Prism 7
Method: as §1, §2

[1] = tested on: human primary melanocytes (NHEM: Normal Human Epidermal Melanocytes); assay: Protection of melanocytes from tunicamycin (ER stress) induced cell death, MTT assay, NHEM; conditions: compound at 25-30 μM, 6 h pretreatment, tunicamycin 200 ng/ml, total 72 h, cell growth over tunicamycin treatment
Method: as §1, §2

Row | SMILES | % Recovery (human A375 cells) [%] | % Recovery (mouse B16F10 cells) [%] | % Recovery [1] [%] | EC50 (human A375 cells) [µM] | EC50 (mouse B16F10 cells) [µM]
1 | O=C(Cc1c[nH]c(-c2ccc(Cl)cc2)n1)NCCc1ccc(F)cc1 [Compound 001, 2-(2-(4-chlorophenyl)-1H-imidazol-4-yl)-N-(4-fluorophenethyl)acetamide] | 25 | 52 | – | – | –
2 | CCCC(=O)NCCc1c[nH]c(-c2ccc(Cl)cc2)n1 [Compound 002, N-(2-(2-(4-chlorophenyl)-1H-imidazol-4-yl)ethyl)butyramide] | 22 | 58 | 17 | 20.6 | 2.71
3 | O=C(Cc1c[nH]c(-c2ccc(Cl)cc2)n1)NCCN1CCOCC1 [Compound 003, 2-(2-(4-chlorophenyl)-1H-imidazol-4-yl)-N-(2-morpholinoethyl)acetamide] | 13 | 17 | – | – | –
4 | CCCCNC(=O)Cc1c[nH]c(-c2ccc(Cl)cc2)n1 [Compound 004, N-butyl-2-(2-(4-chlorophenyl)-1H-imidazol-4-yl)acetamide] | 32 | 22 | – | – | –
5 | CCCCNC(=O)Cc1cn(C)c(-c2ccc(Cl)cc2)n1 [Compound 005, N-butyl-2-(2-(4-chlorophenyl)-1-methyl-1H-imidazol-4-yl)acetamide] | – | 38 | – | – | –
6 | Cn1cc(CC(=O)NCCN2CCOCC2)nc1-c1ccc(Cl)cc1 [Compound 006, 2-(2-(4-chlorophenyl)-1-methyl-1H-imidazol-4-yl)-N-(2-morpholinoethyl)acetamide] | – | 31 | – | – | –
7 | Cn1cc(CC(=O)Nc2cccc(C(F)(F)F)c2)nc1-c1ccc(Cl)cc1 [Compound 007, 2-(2-(4-chlorophenyl)-1-methyl-1H-imidazol-4-yl)-N-(3-(trifluoromethyl)phenyl)acetamide] | 19 | 38 | – | – | –
8 | CC(C)OCCCNC(=O)Cc1cn(C)c(-c2ccc(Cl)cc2)n1 [Compound 008, 2-(2-(4-chlorophenyl)-1-methyl-1H-imidazol-4-yl)-N-(3-isopropoxypropyl)acetamide] | – | 39 | – | – | –
9 | O=C(Cc1c[nH]c(-c2ccc(Cl)cc2)n1)Nc1cccc(C(F)(F)F)c1 [Compound 009, 2-(2-(4-chlorophenyl)-1H-imidazol-4-yl)-N-(3-(trifluoromethyl)phenyl)acetamide] | – | 36 | – | – | –
10 | CC(C)OCCCNC(=O)Cc1c[nH]c(-c2ccc(Cl)cc2)n1 [Compound 010, 2-(2-(4-chlorophenyl)-1H-imidazol-4-yl)-N-(3-isopropoxypropyl)acetamide] | 17 | 12 | – | – | –
11 | O=C(Cc1c[nH]c(-c2ccc(Cl)cc2)n1)Nc1ccc(F)cc1 [Compound 011, 2-(2-(4-chlorophenyl)-1H-imidazol-4-yl)-N-(4-fluorophenyl)acetamide] | – | 18 | – | – | –
12 | O=C(Cc1c[nH]c(-c2ccc(Cl)cc2)n1)N1CCC(F)(F)CC1 [Compound 012, 2-(2-(4-chlorophenyl)-1H-imidazol-4-yl)-1-(4,4-difluoropiperidin-1-yl)ethan-1-one] | – | 15 | – | – | –
13 | Cn1cc(CC(=O)Nc2ccc(F)cc2)nc1-c1ccc(Cl)cc1 [Compound 013, 2-(2-(4-chlorophenyl)-1-methyl-1H-imidazol-4-yl)-N-(4-fluorophenyl)acetamide] | – | 40 | – | – | –
14 | O=C(Cc1c[nH]c(-c2ccc(Cl)cc2)n1)Nc1ccc(C(F)(F)F)cc1 [Compound 014, 2-(2-(4-chlorophenyl)-1H-imidazol-4-yl)-N-(4-(trifluoromethyl)phenyl)acetamide] | 36 | 52 | – | 33.3 | –
15 | O=C(Cc1c[nH]c(-c2ccc(Cl)cc2)n1)N1CCCC1 [Compound 016, 2-(2-(4-chlorophenyl)-1H-imidazol-4-yl)-1-(pyrrolidin-1-yl)ethan-1-one] | 17 | 14 | – | – | –
16 | Cn1cc(CC(=O)N2CCCC2)nc1-c1ccc(Cl)cc1 [Compound 017, 2-(2-(4-chlorophenyl)-1-methyl-1H-imidazol-4-yl)-1-(pyrrolidin-1-yl)ethan-1-one] | – | 29 | – | – | –
17 | O=C(Cc1c[nH]c(-c2ccc(Cl)cc2)n1)NC1CCCC1 [Compound 019, 2-(2-(4-chlorophenyl)-1H-imidazol-4-yl)-N-cyclopentylacetamide] | – | 36 | – | – | –
18 | CN1CCN(C(=O)Cc2c[nH]c(-c3ccc(Cl)cc3)n2)CC1 [Compound 020, 2-(2-(4-chlorophenyl)-1H-imidazol-4-yl)-1-(4-methylpiperazin-1-yl)ethan-1-one] | – | 17 | – | – | –
19 | CN1CCN(C(=O)Cc2cn(C)c(-c3ccc(Cl)cc3)n2)CC1 [Compound 021, 2-(2-(4-chlorophenyl)-1-methyl-1H-imidazol-4-yl)-1-(4-methylpiperazin-1-yl)ethan-1-one] | – | – | – | – | 55.7
20 | Cn1cc(CC(=O)NCCc2ccc(F)cc2)nc1-c1ccc(Cl)cc1 [Compound 022, 2-(2-(4-chlorophenyl)-1-methyl-1H-imidazol-4-yl)-N-(4-fluorophenethyl)acetamide] | 18 | 44 | – | – | 13.7
21 | CC(C)CC(=O)NCCc1c[nH]c(-c2ccc(Cl)cc2)n1 [Compound 027, N-(2-(2-(4-chlorophenyl)-1H-imidazol-4-yl)ethyl)-3-methylbutanamide] | 56 | – | 33 | 14.9 | –
22 | O=C(NCCc1c[nH]c(-c2ccc(Cl)cc2)n1)C12CC3CC(CC(C3)C1)C2 [Compound 064, (3r,5r,7r)-N-(2-(2-(4-chlorophenyl)-1H-imidazol-4-yl)ethyl)adamantane-1-carboxamide] | 65 | – | 38 | 4.9 | –
23 | O=C(NCCc1c[nH]c(-c2ccc(Cl)cc2Cl)n1)c1ccc(C(F)(F)F)cc1 [Compound 066, N-(2-(2-(2,4-dichlorophenyl)-1H-imidazol-4-yl)ethyl)-4-(trifluoromethyl)benzamide] | 44 | 50 | – | 12.1 | 7.2
24 | CCCCCC(=O)NCCc1c[nH]c(-c2ccc(Cl)cc2)n1 [Compound 067, N-(2-(2-(4-chlorophenyl)-1H-imidazol-4-yl)ethyl)hexanamide] | 54 | 40 | – | 3.1 | 9.7
25 | CCCCCCCC(=O)NCCc1c[nH]c(-c2ccc(Cl)cc2)n1 [Compound 068, N-(2-(2-(4-chlorophenyl)-1H-imidazol-4-yl)ethyl)octanamide] | 42 | 21 | – | 9 | 33.8
26 | O=C(NCCc1c[nH]c(-c2cc(Cl)cc(Cl)c2)n1)c1cc(F)cc(F)c1 [Compound 069, N-(2-(2-(3,5-dichlorophenyl)-1H-imidazol-4-yl)ethyl)-3,5-difluorobenzamide] | 88 | – | – | 1.2 | –
27 | O=C(NCCc1c[nH]c(-c2ccc(Cl)cc2Cl)n1)c1ccc(F)cc1 [Compound 070, N-(2-(2-(2,4-dichlorophenyl)-1H-imidazol-4-yl)ethyl)-4-fluorobenzamide] | 44 | 51 | – | 8.1 | 11.9
28 | O=C(NCCc1c[nH]c(-c2ccc(Cl)cc2Cl)n1)c1cc(F)cc(F)c1 [Compound 071, N-(2-(2-(2,4-dichlorophenyl)-1H-imidazol-4-yl)ethyl)-3,5-difluorobenzamide] | 39 | 58 | – | 10.5 | 10.9

Reference: US12378203B2, “Imidazole compounds, process for the synthesis and uses thereof” (AHAMMUNE BIOSCIENCES PRIVATE LIMITED, priority 2018, dated 2025)
